Reference: US20250019772A1, “Method and System of Augmenting Cancer Therapy” (UNIVERSITY OF MIAMI, priority 2023, published 2025)

Experiments:
CD11+ BMDC's = assay: Phagocytosis of irradiated MEFs treated with autophagy inhibitors by BMDC's (qPCR IFNβ1, Cxcl10); assay type: cell-based, mouse; details: BafA1 50 nM; 3-MA 2.5 mM
WT macrophages (WTØ) = assay: Phagocytosis of irradiated cells by WT macrophages (WTØ), Cxcl10 qPCR, with CCL5, CCL5 antibody or CCR inhibitors; assay type: cell-based, mouse; details: exogenously added recombinant CCL5 100 ng/mL 2 h, irradiated B16 cells 50 Gy
Experimental: (B) B16-WT or B16-SKO cells were irradiated using X-rays at 50 Gy for 3 days. 50 μL of the conditioned media from the cells was added to WTØ followed by adding the irradiated B16-WT and B16-SKO cells with the treated APC's for phagocytosis analysis. qPCR analysis was performed for Cxcl10 expression. (C) qPCR analysis of Cxcl10 in WTØ following the phagocytosis of irradiated MEF-WT cells in the presence of CCL5 antibody or IgG control (1 μg) at 100 ng/mL for 2 h prior to the phagocytosis. (D) MEF-WT cells were treated with a cocktail of 100 nM CCR inhibitors (Bx471, SB297006, AZD2098 and Maraviroc). The MEF-WT cells treated with the inhibitors (CCRi) were fed to WTØ for 6 h and Cxcl10 expression examined. (E) MEF WT, SKO or CCL5 KO were transfected with 3 μg/mL ISD for 6 h followed by measuring Ifnβ1, Cxcl10 or Ccl5 expression by qPCR analysis. (F) MEF WT, SKO or CCL5 KO were transfected with 3 μg/mL ISD for 6 h and then examined for STING activity by immunoblotting analysis. […] Immunofluorescence to detect STING translocation was monitored by confocal microscope, according to an embodiment of the present invention; […]
Macrophages were washed with 0.02% EDTA/PBS twice followed by incubation with 0.02% EDTA/PBS at 37C incubator for 10 mins. […] Percentage of phagocytosed cells were assessed by flow cytometry using a LSRII instrument (Becton Dickinson, USA).

DNase II = assay: Nuclease protection assay of Ccl5-DNA complex; assay type: biochemical; details: 1 unit DNase II, 37° C., 20 mins
ISD (dsDNA) = assay: Binding of CCL5 to DNA (Picogreen, EMSA); details: ISD 10 μg/mL
Source text: SIEVES were isolated from irradiated (X-ray at 50 Gy for 3 days) WT, SKO, or CCL5 MEFs as well as B16-WT, B16-SKO or B16-CCL5KO cells by centrifugation. (A) Immunoblot analysis of centrifuged fractions using antibodies to STING, CD81, LC3, and Lamin A/C. (B) Size distribution evaluation of endosomal vesicles isolated from B16-WT. B16-SKO, and B16-CCL5 KO cells following irradiation with X-rays at 50 Gy. (C) Evaluation of number of endosomal vesicles in (B). (D) Immunoblotting analysis of endosomal/exosomal markers in endosomal vesicles in (B). (E) cGAMP ELISA analysis of WT DC. SKO DC, and CKO BMDC's treated with 30 μg of SIEVE's isolated from MEF WT, MEF SKO, MEF CKO or MEF CCL5 KO. (F) qPCR analysis of Cxcl10 in WT DC treated with SIEVE's from (E). […] (G) Tumor volumes were measured every other day for 2 weeks. […]
(B) B16-WT. […] DNA was purified with phenol-chloroform and CCL5 bound ISD was analyzed by qPCR analysis. (C) DNA in SIEVE's isolated from MEF-WT, SKO and CCL5 KO with or without X-ray at 50 Gy were measured by Nanodrop, Picogreen staining and visualized by agarose gel electrophoresis and dot blot analysis, according to an embodiment of the present invention; and
ISD90 was premixed with CCL5 and negative control molecules at different concentration in 100 μL and analyzed by a fluorimeter after staining with Picogreen. […]

Row | Molecule | immunogenicity of irradiated MEF cells (ability to activate APC's) (CD11+ BMDC's) | rescue of immunogenicity of Ccl5 KO or STING KO cells (WT macrophages (WTØ)) | protection against DNA degradation by DNaseII (DNase II) | association of Ccl5 with DNA (ISD (dsDNA))
1 | Cn1cnc(N)c2ncnc1-2 [3-MA, 3-Methyladenine] | suppressed the immunogenicity | – | – | –
2 | CO/C1=C\C(C)=C\[C@@H](C)[C@@H](O)[C@@H](C)C/C(C)=C/C=C/[C@H](OC)[C@@H]([C@@H](C)[C@@H](O)[C@H](C)[C@@]2(O)C[C@@H](O)[C@H](C)[C@@H](C(C)C)O2)OC1=O [BafA1, bafilomycin A1] | suppressed the immunogenicity | – | – | –
3 | Ccl5: recombinant CCL5 protein, exogenously added chemokine | – | did not appear to significantly rescue the immunogenicity | conferred protection against DNA degradation | associated with
